From article PMC5315633 (ACS chemical biology, 2016) come the findings set out here.

Molecules are shown by their SMILES.

The target of test [1] is T1, Psf3 (Pseudomonas syringae, UniProt I6R485).
T1 sequence (I6R485 1-295): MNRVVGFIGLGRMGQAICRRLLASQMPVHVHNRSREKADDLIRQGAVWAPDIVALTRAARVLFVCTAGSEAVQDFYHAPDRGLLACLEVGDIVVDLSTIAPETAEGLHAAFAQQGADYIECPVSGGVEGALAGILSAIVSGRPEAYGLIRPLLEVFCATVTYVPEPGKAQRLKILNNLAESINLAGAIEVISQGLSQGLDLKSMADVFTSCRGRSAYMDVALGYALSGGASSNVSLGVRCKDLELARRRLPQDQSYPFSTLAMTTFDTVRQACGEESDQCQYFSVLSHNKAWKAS
The test is described as follows: NADPH consumption at […] nm, Michaelis-Menten fit. It counts as biochemical. The conditions noted are these: 250 uM NADPH (saturating), 50 mM HEPES pH 7.5.

In test [2] the target is T1, Psf3. The test is described as follows: […] NMR of reverse. In kind it is biochemical. The conditions noted are these: 2 mM NADP+, 1 mM (S)-2-HPP, pH 7.5, room temperature.

As for `CC(=O)CP(=O)(O)O` [2-OPP], the KM entry in test [1] was “Kinetic parameters, with respect to 2-OPP and determined by monitoring the consumption of NADPH”.
As to `C[C@H](O)CP(=O)(O)O` [(S)-2-HPP], the “31P NMR of reverse (oxidation) reaction” value in test [2] is on record as “reaction with (S)-2-HPP resulted in a new peak that is consistent with 2-OPP”.
